Values joined by “and” are separate entries in the source; they are usually repeats but may differ in a detail not shown here. Identical values can stand only once.
Tested on: A498 complex spheroids with HUVEC/MSC, growth
Experiment: Anticancer human tumor A498 cell line growth inhibition [AhR];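 note: seven day exposure starting three days after spheroid seeding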;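 for viability, T/C: luminescence signal used as a surrogate for viable cells; luminescence viability scaled so 100% equals DMSO vehicle wells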
Settings: for viability, T/C: stronger effect = lower value
Procedure, shortened: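 Complex tumor spheroids co-cultured with HUVEC and human MSC stroma; AhR antagonists tested in combination with standard-of-care and investigational agents. Top concentration at or near clinical Cmax (else 10 microM), half-log dilutions; growth expressed as percent test/control.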

[1] = curve of first compound, second compound 0.1 µM
[2] = curve of first compound, second compound 0.316 µM
[3] = curve of first compound, second compound 1 µM
[4] = curve of first compound, second compound 3.16 µM
[5] = curve of first compound, second compound 10 µM
[6] = second compound 0.1 µM, first compound 0.0316 µM
[7] = second compound 0.1 µM, first compound 0.1 µM
[8] = second compound 0.316 µM, first compound 0.0316 µM
[9] = second compound 0.316 µM, first compound 0.1 µM
[10] = second compound 1 µM, first compound 0.0316 µM
[11] = second compound 1 µM, first compound 0.1 µM
[12] = second compound 3.16 µM, first compound 0.0316 µM
[13] = second compound 3.16 µM, first compound 0.1 µM
[14] = second compound 10 µM, first compound 0.0316 µM
[15] = second compound 10 µM, first compound 0.1 µM
[16] = second compound 0.1 µM, first compound 0.316 µM
[17] = second compound 0.1 µM, first compound 1 µM
[18] = second compound 0.1 µM, first compound 3.16 µM
[19] = second compound 0.1 µM, first compound 10 µM
[20] = second compound 0.316 µM, first compound 0.316 µM
[21] = second compound 0.316 µM, first compound 1 µM
[22] = second compound 0.316 µM, first compound 3.16 µM
[23] = second compound 0.316 µM, first compound 10 µM
[24] = second compound 1 µM, first compound 0.316 µM
[25] = second compound 1 µM, first compound 1 µM
[26] = second compound 1 µM, first compound 3.16 µM
[27] = second compound 1 µM, first compound 10 µM
[28] = second compound 3.16 µM, first compound 0.316 µM
[29] = second compound 3.16 µM, first compound 1 µM
[30] = second compound 3.16 µM, first compound 3.16 µM
[31] = second compound 3.16 µM, first compound 10 µM
[32] = second compound 10 µM, first compound 0.316 µM
[33] = second compound 10 µM, first compound 1 µM
[34] = second compound 10 µM, first compound 3.16 µM
[35] = second compound 10 µM, first compound 10 µM

CC[C@@]1(O)C(=O)OCc2c1cc1n(c2=O)Cc2cc3c(CN(C)C)c(O)ccc3nc2-1 + Cc1cncc(-c2nc(NCCc3c[nH]c4ccccc34)c3ncn(C(C)C)c3n2)c1
IC50 [1]: > 100 nM | IC50 [2]: > 100 nM | IC50 [3]: > 100 nM | IC50 [4]: > 100 nM | IC50 [5]: < 0.316 nM | viability, T/C (second compound 0.1 µM, first compound 0.000316 µM): 87.4% | viability, T/C (second compound 0.1 µM, first compound 0.001 µM): 92.5% | viability, T/C (second compound 0.1 µM, first compound 0.00316 µM): 90.1% | viability, T/C (second compound 0.1 µM, first compound 0.01 µM): 84.7% | viability, T/C [6]: 72.9% | viability, T/C [7]: 69.8% | viability, T/C (second compound 0.316 µM, first compound 0.000316 µM): 88.7% | viability, T/C (second compound 0.316 µM, first compound 0.001 µM): 92.2% | viability, T/C (second compound 0.316 µM, first compound 0.00316 µM): 91.1% | viability, T/C (second compound 0.316 µM, first compound 0.01 µM): 83.1% | viability, T/C [8]: 83.3% | viability, T/C [9]: 72.9% | viability, T/C (second compound 1 µM, first compound 0.000316 µM): 89.2% | viability, T/C (second compound 1 µM, first compound 0.001 µM): 92.5% | viability, T/C (second compound 1 µM, first compound 0.00316 µM): 98.3% | viability, T/C (second compound 1 µM, first compound 0.01 µM): 76.5% | viability, T/C [10]: 77% | viability, T/C [11]: 66.6% | viability, T/C (second compound 3.16 µM, first compound 0.000316 µM): 61.4% | viability, T/C (second compound 3.16 µM, first compound 0.001 µM): 72.9% | viability, T/C (second compound 3.16 µM, first compound 0.00316 µM): 65.8% | viability, T/C (second compound 3.16 µM, first compound 0.01 µM): 60.5% | viability, T/C [12]: 56.5% | viability, T/C [13]: 53.1% | viability, T/C (second compound 10 µM, first compound 0.000316 µM): 4.54% | viability, T/C (second compound 10 µM, first compound 0.001 µM): 6% | viability, T/C (second compound 10 µM, first compound 0.00316 µM): 7.18% | viability, T/C (second compound 10 µM, first compound 0.01 µM): 5.32% | viability, T/C [14]: 6.79% | viability, T/C [15]: 8.73%

COc1cc(Nc2ncc3c(n2)-c2ccc(Cl)cc2C(c2c(F)cccc2OC)=NC3)ccc1C(=O)O + Cc1cncc(-c2nc(NCCc3c[nH]c4ccccc34)c3ncn(C(C)C)c3n2)c1
IC50 [1]: 1460 nM | IC50 [2]: 1790 nM | IC50 [3]: 918 nM | IC50 [4]: 418 nM | IC50 [5]: < 31.6 nM | viability, T/C [6]: 68.9% | viability, T/C [7]: 72% | viability, T/C [16]: 64% | viability, T/C [17]: 51.5% | viability, T/C [18]: 44.2% | viability, T/C [19]: 32.4% | viability, T/C [8]: 71.9% | viability, T/C [9]: 67.8% | viability, T/C [20]: 69.6% | viability, T/C [21]: 54% | viability, T/C [22]: 45.3% | viability, T/C [23]: 35% | viability, T/C [10]: 71.2% | viability, T/C [11]: 71.4% | viability, T/C [24]: 62.4% | viability, T/C [25]: 47.4% | viability, T/C [26]: 41.4% | viability, T/C [27]: 33.4% | viability, T/C [12]: 56.9% | viability, T/C [13]: 58% | viability, T/C [28]: 52.2% | viability, T/C [29]: 42.3% | viability, T/C [30]: 35.3% | viability, T/C [31]: 30.5% | viability, T/C [14]: 4.64% | viability, T/C [15]: 6.08% | viability, T/C [32]: 4.95% | viability, T/C [33]: 4.83% | viability, T/C [34]: 4.84% | viability, T/C [35]: 6.67%

CC(C)CC(NC(=O)C(Cc1ccccc1)NC(=O)c1cnccn1)B(O)O (configuration not stated) + CC(CO)NC(=O)c1cc(-c2ccc(Cl)cc2)nn(-c2cnn(C)c2)c1=O
IC50 [1]: 2.95 nM | IC50 [2]: 3.2 nM | IC50 [3]: 2.67 nM | IC50 [4]: 2.13 nM | IC50 [5]: 1.57 nM | viability, T/C (second compound 0.1 µM, first compound 0.000949 µM): 91.1% | viability, T/C (second compound 0.1 µM, first compound 0.003 µM): 49.4% | viability, T/C (second compound 0.1 µM, first compound 0.00949 µM): 3.71% | viability, T/C (second compound 0.1 µM, first compound 0.03 µM): 0.58% | viability, T/C (second compound 0.1 µM, first compound 0.0949 µM): 2.33% | viability, T/C (second compound 0.1 µM, first compound 0.3 µM): 1.23% | viability, T/C (second compound 0.316 µM, first compound 0.000949 µM): 90% | viability, T/C (second compound 0.316 µM, first compound 0.003 µM): 52.6% | viability, T/C (second compound 0.316 µM, first compound 0.00949 µM): 4.62% | viability, T/C (second compound 0.316 µM, first compound 0.03 µM): 1.25% | viability, T/C (second compound 0.316 µM, first compound 0.0949 µM): 0.46% | viability, T/C (second compound 0.316 µM, first compound 0.3 µM): 1.14% | viability, T/C (second compound 1 µM, first compound 0.000949 µM): 87.2% | viability, T/C (second compound 1 µM, first compound 0.003 µM): 45.8% | viability, T/C (second compound 1 µM, first compound 0.00949 µM): 4.69% | viability, T/C (second compound 1 µM, first compound 0.03 µM): 1.75% | viability, T/C (second compound 1 µM, first compound 0.0949 µM): 1.82% | viability, T/C (second compound 1 µM, first compound 0.3 µM): 2.86% | viability, T/C (second compound 3.16 µM, first compound 0.000949 µM): 79.4% | viability, T/C (second compound 3.16 µM, first compound 0.003 µM): 37.6% | viability, T/C (second compound 3.16 µM, first compound 0.00949 µM): 5.03% | viability, T/C (second compound 3.16 µM, first compound 0.03 µM): 1.11% | viability, T/C (second compound 3.16 µM, first compound 0.0949 µM): 3.08% | viability, T/C (second compound 3.16 µM, first compound 0.3 µM): 0.24% | viability, T/C (second compound 10 µM, first compound 0.000949 µM): 65.7% | viability, T/C (second compound 10 µM, first compound 0.003 µM): 29.6% | viability, T/C (second compound 10 µM, first compound 0.00949 µM): 4.31% | viability, T/C (second compound 10 µM, first compound 0.03 µM): 0.81% | viability, T/C (second compound 10 µM, first compound 0.0949 µM): 2.81% | viability, T/C (second compound 10 µM, first compound 0.3 µM): 0.32%

Nc1ccn(C2OC(CO)C(O)C2(F)F)c(=O)n1 (configuration not stated) + Cc1cncc(-c2nc(NCCc3c[nH]c4ccccc34)c3ncn(C(C)C)c3n2)c1
IC50 [1]: < 31.6 nM | IC50 [2]: < 31.6 nM | IC50 [3]: < 31.6 nM | IC50 [4]: < 31.6 nM | IC50 [5]: < 31.6 nM | viability, T/C [6]: 26.9% | viability, T/C [7]: 33.5% | viability, T/C [16]: 41.7% | viability, T/C [17]: 41.2% | viability, T/C [18]: 36.5% | viability, T/C [19]: 39.1% | viability, T/C [8]: 29% | viability, T/C [9]: 32% | viability, T/C [20]: 42.7% | viability, T/C [21]: 43.7% | viability, T/C [22]: 41.9% | viability, T/C [23]: 39.9% | viability, T/C [10]: 32.7% | viability, T/C [11]: 26.5% | viability, T/C [24]: 39.7% | viability, T/C [25]: 42.2% | viability, T/C [26]: 39.5% | viability, T/C [27]: 34% | viability, T/C [12]: 45.1% | viability, T/C [13]: 27.8% | viability, T/C [28]: 28.7% | viability, T/C [29]: 30.5% | viability, T/C [30]: 28.8% | viability, T/C [31]: 33% | viability, T/C [14]: 4.54% | viability, T/C [15]: 4.79% | viability, T/C [32]: 5.17% | viability, T/C [33]: 3.59% | viability, T/C [34]: 3.85% | viability, T/C [35]: 5.49%

CC(C)c1c(-c2ccccc2)nc2c(C#N)c[nH]n2c1=O
viability, T/C (compound 0.0316 µM): 109% and 96.5% and 102% | viability, T/C (compound 0.1 µM): 113% and 109% and 96% | viability, T/C (compound 0.316 µM): 104% and 105% and 96.3% | viability, T/C (compound 1 µM): 99.8% and 104% and 97.1% | viability, T/C (compound 3.16 µM): 102% (2×) and 98.6% | viability, T/C (compound 10 µM): 106% and 112% and 96.8% | IC50 (curve of compound): > 10000 nM

COc1ccc([C@@H](O)c2cc(-c3ncnc4cc(N5CCOCC5)ccc34)c(F)cc2Cl)nn1 + Cc1ccccc1N=Nc1ccc(NC(=O)c2ccnn2C)c(C)c1
IC50 [1]: 252 nM | IC50 [2]: 562 nM | IC50 [3]: 650 nM | IC50 [4]: 666 nM | IC50 [5]: 630 nM | viability, T/C [6]: 85.8% | viability, T/C [7]: 58% | viability, T/C [16]: 40.8% | viability, T/C [17]: 42.9% | viability, T/C [18]: 18.1% | viability, T/C [19]: 9.01% | viability, T/C [8]: 71.1% | viability, T/C [9]: 90.5% | viability, T/C [20]: 54.8% | viability, T/C [21]: 41.5% | viability, T/C [22]: 11.4% | viability, T/C [23]: 9.4% | viability, T/C [10]: 85.7% | viability, T/C [11]: 84% | viability, T/C [24]: 81.2% | viability, T/C [25]: 31.4% | viability, T/C [26]: 10.2% | viability, T/C [27]: 6.98% | viability, T/C [12]: 91.9% | viability, T/C [13]: 92.9% | viability, T/C [28]: 71.1% | viability, T/C [29]: 38.5% | viability, T/C [30]: 12.6% | viability, T/C [31]: 6.52% | viability, T/C [14]: 83.4% | viability, T/C [15]: 83.2% | viability, T/C [32]: 67.2% | viability, T/C [33]: 37.5% | viability, T/C [34]: 17.5% | viability, T/C [35]: 7.07%

— PubChem BioAssay AID1919007 (Molecular Pharmacology Branch, DTP, NCI, 2023)
